These results are taken from ChEMBL document CHEMBL4419163, “Assays for identifying compounds that modulate bitter taste” (2014).

Holding throughout (type): functional, cell-based
Test [1] concerns the target T1, Taste receptor type 2 member 14 (Homo sapiens) (UniProt Q9NYV8).
T1 sequence (whole entry): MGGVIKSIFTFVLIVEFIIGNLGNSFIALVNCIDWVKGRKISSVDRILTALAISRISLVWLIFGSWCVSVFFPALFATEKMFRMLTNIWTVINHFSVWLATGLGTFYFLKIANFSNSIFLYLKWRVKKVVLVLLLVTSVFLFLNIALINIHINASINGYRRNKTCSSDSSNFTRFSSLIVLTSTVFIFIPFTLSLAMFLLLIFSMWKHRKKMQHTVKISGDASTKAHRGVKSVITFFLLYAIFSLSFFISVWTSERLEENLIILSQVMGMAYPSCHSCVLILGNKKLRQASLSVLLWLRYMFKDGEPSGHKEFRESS
Kind of test: Agonist activity at human TAS2R14 expressed in HEK293T cells co-expressing Galpha15 assessed as increase in intracellular calcium level at 20 mM by Calcium-3 dye based fluorescence assay relative to control. (Calcium assays in cells follow changes in intracellular calcium, usually with a dye or a luminescent sensor.)

In test [2] the target is T2, Taste receptor type 2 member 46 (Homo sapiens) (UniProt P59540).
T2 sequence (whole entry): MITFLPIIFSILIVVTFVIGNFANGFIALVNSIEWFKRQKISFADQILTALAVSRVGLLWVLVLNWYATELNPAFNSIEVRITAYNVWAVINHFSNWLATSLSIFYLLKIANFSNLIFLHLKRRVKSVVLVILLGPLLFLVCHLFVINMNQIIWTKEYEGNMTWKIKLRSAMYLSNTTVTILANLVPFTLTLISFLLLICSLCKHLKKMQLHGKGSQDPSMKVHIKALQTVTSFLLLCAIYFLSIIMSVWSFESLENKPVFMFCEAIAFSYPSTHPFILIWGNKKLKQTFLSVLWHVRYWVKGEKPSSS
Kind of test: Agonist activity at human TAS2R46 expressed in HEK293T cells co-expressing Galpha15 assessed as increase in intracellular calcium level at 20 mM by Calcium-3 dye based fluorescence assay relative to control.

Test [3] deals with T3, Taste receptor type 2 member 3 (Homo sapiens) (UniProt Q9NYW6).
T3 sequence (whole entry): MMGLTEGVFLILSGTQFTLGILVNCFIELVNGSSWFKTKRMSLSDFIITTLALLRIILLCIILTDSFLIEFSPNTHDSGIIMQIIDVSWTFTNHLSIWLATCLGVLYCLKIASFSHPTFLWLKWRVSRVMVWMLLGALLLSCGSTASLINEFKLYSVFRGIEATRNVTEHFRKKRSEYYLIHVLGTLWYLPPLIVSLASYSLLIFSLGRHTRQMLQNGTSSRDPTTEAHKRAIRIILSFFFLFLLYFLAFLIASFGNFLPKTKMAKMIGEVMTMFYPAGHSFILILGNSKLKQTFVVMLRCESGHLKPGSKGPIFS
Kind of test: Agonist activity at human TAS2R3 expressed in HEK293T cells co-expressing Galpha15 assessed as increase in intracellular calcium level at 20 mM by Calcium-3 dye based fluorescence assay relative to control.

For test [4], the target named is T4, Taste receptor type 2 member 4 (Homo sapiens) (UniProt Q9NYW5).
T4 sequence (whole entry): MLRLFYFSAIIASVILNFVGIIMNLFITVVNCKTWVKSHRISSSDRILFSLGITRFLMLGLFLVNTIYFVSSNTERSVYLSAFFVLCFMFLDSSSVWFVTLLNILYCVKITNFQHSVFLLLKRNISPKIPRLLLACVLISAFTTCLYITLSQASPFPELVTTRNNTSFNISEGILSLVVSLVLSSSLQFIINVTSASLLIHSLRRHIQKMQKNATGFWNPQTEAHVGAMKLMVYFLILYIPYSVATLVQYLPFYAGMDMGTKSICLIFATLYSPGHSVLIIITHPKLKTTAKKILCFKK
The experiment in a line: Agonist activity at human TAS2R4 expressed in HEK293T cells co-expressing Galpha15 assessed as increase in intracellular calcium level at 20 mM by Calcium-3 dye based fluorescence assay relative to control.

Test [5] addresses T5, Taste receptor type 2 member 60 (Homo sapiens) (UniProt P59551).
T5 sequence (whole entry): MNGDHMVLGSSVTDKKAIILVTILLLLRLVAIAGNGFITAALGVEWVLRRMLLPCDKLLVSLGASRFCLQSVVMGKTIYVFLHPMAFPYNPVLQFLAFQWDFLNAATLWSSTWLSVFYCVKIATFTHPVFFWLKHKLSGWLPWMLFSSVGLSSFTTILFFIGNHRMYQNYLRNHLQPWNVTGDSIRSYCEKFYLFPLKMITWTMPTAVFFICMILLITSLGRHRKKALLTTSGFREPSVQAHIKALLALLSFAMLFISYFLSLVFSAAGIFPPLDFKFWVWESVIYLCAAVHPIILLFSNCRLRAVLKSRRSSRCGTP
The experiment in a line: Agonist activity at human TAS2R60 expressed in HEK293T cells co-expressing Galpha15 assessed as increase in intracellular calcium level at 20 mM by Calcium-3 dye based fluorescence assay relative to control.

Test [6] addresses T6, Taste receptor type 2 member 45 (Homo sapiens) (UniProt P59539).
T6 sequence (whole entry): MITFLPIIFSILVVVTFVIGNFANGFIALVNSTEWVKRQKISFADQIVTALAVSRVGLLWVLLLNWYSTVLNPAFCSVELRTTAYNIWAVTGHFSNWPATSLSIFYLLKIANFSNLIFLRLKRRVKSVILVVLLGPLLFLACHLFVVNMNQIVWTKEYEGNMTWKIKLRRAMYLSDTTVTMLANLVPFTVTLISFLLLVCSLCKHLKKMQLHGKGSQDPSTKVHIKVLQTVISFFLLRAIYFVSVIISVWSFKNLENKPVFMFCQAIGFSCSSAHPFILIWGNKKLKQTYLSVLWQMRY
Kind of test: Agonist activity at human TAS2R45 expressed in HEK293T cells co-expressing Galpha15 assessed as increase in intracellular calcium level at 20 mM by Calcium-3 dye based fluorescence assay relative to control.

Test [7] concerns the target T7, Taste receptor type 2 member 31 (Homo sapiens) (UniProt P59538).
T7 sequence (whole entry): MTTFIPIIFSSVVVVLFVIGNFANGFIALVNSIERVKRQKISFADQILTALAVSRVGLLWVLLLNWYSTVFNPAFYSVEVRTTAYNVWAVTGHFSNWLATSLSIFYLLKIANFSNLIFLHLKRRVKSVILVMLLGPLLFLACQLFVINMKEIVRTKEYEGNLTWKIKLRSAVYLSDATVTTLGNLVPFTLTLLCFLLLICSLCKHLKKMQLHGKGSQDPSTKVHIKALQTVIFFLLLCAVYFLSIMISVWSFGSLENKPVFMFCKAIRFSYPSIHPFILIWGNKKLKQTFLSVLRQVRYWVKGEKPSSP
The experiment in a line: Agonist activity at human TAS2R44 expressed in HEK293T cells co-expressing Galpha15 assessed as increase in intracellular calcium level at 20 mM by Calcium-3 dye based fluorescence assay relative to control.

Molecules are shown by their SMILES.

For `CC1=CC(=O)NS(=O)(=O)O1`, the Activity in test [1] was over 40%; in test [2], under 40%; in test [3], under 40%; in test [4], over 40%; in test [5], under 40%; in test [6], under 40%. For the same compound, the Activity in test [7] was over 40%.
`[Cl-].[K+]` [POTASSIUM CHLORIDE]: the Activity in test [1] was over 40%; in test [2], under 40%; in test [3] it was under 40%; in test [4], over 40%; in test [5], over 40%; in test [6], under 40%. In addition, in test [7], the Activity is over 40%.
On to `CC(O)C(=O)[O-].[K+]` (stereo unspecified), for which the Activity in test [1] is over 40%; in test [2] it was over 40%; in test [3], under 40%; in test [4] it was over 40%; in test [5], over 40%; in test [6] it was under 40%. Moreover, the Activity in test [7] was over 40%.
